Reference: patent US12098148B2, “Therapeutic compounds” (C4X Discovery Limited, priority 2018, dated 2024)
Like-named read-outs stand apart in the source and are kept apart here.

Experiments:
[1] = tested on: NQO1 mRNA in BEAS-2B cells; test: Beas2B NQO1 mRNA cell based assay; set-up: species or system human; settings: Homo sapiens, BEAS-2B
Description: Beas2B NQO1 mRNA Cell Based Assay
The up regulation of the NRF2 mediated gene NAD(P)H:quinone acceptor oxidoreductase 1 (NQO1) was measured using the following assay method: BEAS-2B cells (ATCC CRL-9609) were plated in 96-well clear plates at 20,000 cells/well in 75 μL of cell culture media and incubated overnight (37° C., 5% CO2). On day 2, 25 μL of compound or controls were added to the cells for 24 h. On day 3, the medium was aspirated from the plate and the Cells-to-CT™ 1-Step TaqMan® Kit (Ambion A25603) was used to perform expression analysis directly from cultured cells without RNA purification according to the manufacturer's instructions.
Briefly, cells were washed with ice cold PBS and 22.5 μL of room-temperature DNase/Lysis solution was added to the cells and incubated at room temperature for 5 minutes. To stop the reaction, 2.25 μL of stop solution was added to the cell lysate. The samples were diluted 1:5 using nuclease free water and 2.5 μL transferred into the PCR plate. Real-time PCR was performed using the C-1000 Thermal Cycler (Bio-Rad) using human beta actin as the internal control. The cDNA was amplified with a specific primer for NQO1 using the 1-step RT-PCR master mix (Ambion Cells-to-CT™ 1-Step TaqMan® Kit A25603). The primers/probes sets that were used for amplification of cDNA were obtained from TaqMan Gene Expression Assays (Applied Biosystems). The comparative CT (ΔΔCT) relative quantification method was used to calculate the relative mRNA level of the target gene NQO1 as described in the Applied Biosystems Chemistry Guide.

[2] = biological target: human KEAP1 (N-term, residues 321-609) (Homo sapiens, UniProt Q14145); test: biochemical;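 further: fluorescence polarization competition assay of Kelch domain binding to NRF2, 12-point 1:3 dilution series from 10 µM, read after 1 h at room temperature, floor 10 nM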
Description: Biological Assays KEAP1 Kelch Fluorescence Polarization (FP) Assay Method
Inhibition of the Kelch domain-NRF2 interaction was determined using a fluorescence polarization-based competition assay in a black 384-well microplate. Compounds were tested at a starting concentration of 10 μM serially diluted 1:3 to generate a 12-point dose response curve on the Biomek FX robot.
After 1 h at room temperature, fluorescence polarization (excitation 470 nm/emission 530 nm) was measured using an Envision plate reader. IC50 values were determined by fitting the data to a four parameter logistic fit using XLfit or XE Runner within ActivityBase.

[3] = 24 h, 24 h compound treatment, increase in NQO1 mRNA vs vehicle (0.1% DMSO), read-out: EC50

Chain of human KEAP1 (N-term, residues 321-609) (Q14145 321-609): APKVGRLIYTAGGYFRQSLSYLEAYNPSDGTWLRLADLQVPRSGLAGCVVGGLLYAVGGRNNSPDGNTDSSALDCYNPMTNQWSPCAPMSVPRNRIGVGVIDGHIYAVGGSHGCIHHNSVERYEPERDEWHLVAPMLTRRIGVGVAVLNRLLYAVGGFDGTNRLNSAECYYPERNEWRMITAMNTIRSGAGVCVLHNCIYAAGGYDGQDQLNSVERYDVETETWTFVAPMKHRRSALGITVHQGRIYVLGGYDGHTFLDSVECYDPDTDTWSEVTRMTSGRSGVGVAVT

Which EC50 [1, 3] does the source give for `Cn1nnc2cc(COc3cccc4c3[C@@H](CN3C(=O)c5ccccc5C3=O)N(C(=O)[C@@H]3CCCC[C@@H]3C(=O)O)CC4)ccc21` [Example 8, (1S,2R)-2-((S)-1-((1,3-Dioxoisoindolin-2-yl)methyl)-8-((1-methyl-1H-benzo[d][1,2,3]triazol-5-yl)methoxy)-1,2,3,4-tetrahydroisoquinoline-2-carbonyl)cyclohexane-1-carboxylic acid] here?
Its EC50 is 48 nM.

What about the IC50 [2] of the same compound?
The IC50 was 8.2 nM.

Which EC50 [1, 3] does the source give for `Cn1cc(COc2cccc3c2[C@@H](CN2C(=O)c4ccccc4C2=O)N(C(=O)[C@@H]2CCCC[C@@H]2C(=O)O)CC3)nn1` [Example 9, (1S,2R)-2-((S)-1-((1,3-dioxoisoindolin-2-yl)methyl)-8-((1-methyl-1H-1,2,3-triazol-4-yl)methoxy)-1,2,3,4-tetrahydroisoquinoline-2-carbonyl)cyclohexane-1-carboxylic acid] here?
The EC50 was 24 nM.

What about the IC50 [2] of the same compound?
The IC50 was 7.7 nM.

How did the EC50 [1, 3] turn out when `Cn1cnc2cc(COc3cccc4c3[C@@H](CN3C(=O)c5ccccc5C3=O)N(C(=O)[C@@H]3CCCC[C@@H]3C(=O)O)CC4)ccc21` [Example 10, (1S,2R)-2-((S)-1-((1,3-dioxoisoindolin-2-yl)methyl)-8-((1-methyl-1H-benzo[d]imidazol-5-yl)methoxy)-1,2,3,4-tetrahydroisoquinoline-2-carbonyl)cyclohexane-1-carboxylic acid] was run?
The EC50 was 140 nM.

And the EC50 ([1]; NQO1 mRNA, on one test occasion, read-out: EC50 on one test occasion (footnote to Table 5))?
Its EC50 is greater than 500 nM.

And the IC50 [2]?
The IC50 was 15 nM.

How did the EC50 [1, 3] turn out when `CC(=O)N1CC[C@H](Oc2ccc(Br)c3c2[C@@H](CN2C(=O)c4ccccc4C2=O)N(C(=O)[C@@H]2CCCC[C@@H]2C(=O)O)CC3)C1` [Example 11, (1S,2R)-2-((S)-8-(((S)-1-Acetylpyrrolidin-3-yl)oxy)-5-bromo-1-((1,3-dioxoisoindolin-2-yl)methyl)-1,2,3,4-tetrahydroisoquinoline-2-carbonyl)cyclohexane-1-carboxylic acid] was run?
The EC50 was 3.5 nM.

What about the IC50 [2] of the same compound?
The IC50 was 5.1 nM.

`CC(=O)N1CC[C@H](Oc2ccc(Cl)c3c2[C@@H](CN2C(=O)c4ccccc4C2=O)N(C(=O)[C@@H]2CCCC[C@@H]2C(=O)O)CC3)C1` [Example 12, (1S,2R)-2-((S)-8-(((S)-1-Acetylpyrrolidin-3-yl)oxy)-5-chloro-1-((1,3-dioxoisoindolin-2-yl)methyl)-1,2,3,4-tetrahydroisoquinoline-2-carbonyl)cyclohexane-1-carboxylic acid] was tested. Which EC50 [1, 3] did it give?
Its EC50 is 8.6 nM.

What about the IC50 [2] of the same compound?
The IC50 was 5.8 nM.

For `CC(=O)N1CC[C@H](Oc2c(Cl)cc(Cl)c3c2[C@@H](CN2C(=O)c4ccccc4C2=O)N(C(=O)[C@@H]2CCCC[C@@H]2C(=O)O)CC3)C1` [Example 13, (1S,2R)-2-((S)-8-(((S)-1-Acetylpyrrolidin-3-yl)oxy)-5,7-dichloro-1-((1,3-dioxoisoindolin-2-yl)methyl)-1,2,3,4-tetrahydroisoquinoline-2-carbonyl)cyclohexane-1-carboxylic acid], which EC50 [1, 3] is on record?
The EC50 was 530 nM.

And the IC50 [2]?
Its IC50 is 8.5 nM.

`O=C(O)[C@H]1CCCC[C@H]1C(=O)N1CCc2c(Cl)ccc(O[C@H]3CCN(C(=O)c4cncs4)C3)c2[C@H]1CN1C(=O)c2ccccc2C1=O` [Example 14, (1S,2R)-2-((S)-5-chloro-1-((1,3-dioxoisoindolin-2-yl)methyl)-8-(((S)-1-(thiazole-5-carbonyl)pyrrolidin-3-yl)oxy)-1,2,3,4-tetrahydroisoquinoline-2-carbonyl)cyclohexane-1-carboxylic acid] was tested. Which EC50 [1, 3] did it give?
The EC50 was 2.9 nM.

What about the IC50 [2] of the same compound?
The IC50 was 3.7 nM.

Which results are given for `O=C(O)[C@H]1CCCC[C@H]1C(=O)N1CCc2cccc(O[C@H]3CCN(C(=O)c4cncs4)C3)c2[C@H]1CN1Cc2ccccc2C1=O` [Example 15, (1S,2R)-2-((S)-1-((1-Oxoisoindolin-2-yl)methyl)-8-(((S)-1-(thiazole-5-carbonyl)pyrrolidin-3-yl)oxy)-1,2,3,4-tetrahroisoquinoline-2-carbonyl)cyclohexane-1-carboxylic acid]?
EC50 [1, 3]: 850 nM; IC50 [2]: 5.1 nM

With `O=C(O)[C@H]1CCCC[C@H]1C(=O)N1CCc2c(Br)ccc(OCc3nnc4ccccn34)c2[C@H]1CN1Cc2ccccc2C1=O` [Example 16, (1S,2R)-2-((S)-8-([1,2,4]triazolo[4,3-a]pyridin-3-ylmethoxy)-5-bromo-1-((1-oxoisoindolin-2-yl)methyl)-1,2,3,4-tetrahydroisoquinoline-2-carbonyl)cyclohexane-1-carboxylic acid] as the compound, how does the EC50 [1, 3] read?
The EC50 was 2 nM.

What about the IC50 [2] of the same compound?
Its IC50 is 8.1 nM.

With `CC(C)n1cc(COc2cccc3c2[C@@H](CN2Cc4ccccc4C2=O)N(C(=O)[C@@H]2CCCC[C@@H]2C(=O)O)CC3)nn1` [Example 17, (1S,2R)-2-((S)-8-((1-Isopropyl-1H-1,2,3-triazol-4-yl)methoxy)-1-((1-oxoisoindolin-2-yl)methyl)-1,2,3,4-tetrahydroisoquinoline-2-carbonyl)cyclohexane-1-carboxylic acid] as the compound, how does the EC50 [1, 3] read?
Its EC50 is 110 nM.

And the IC50 [2]?
Its IC50 is 9.7 nM.

How did the EC50 [1, 3] turn out when `Cn1nnc2cc(COc3cccc4c3[C@@H](CN3Cc5ccccc5C3=O)N(C(=O)[C@@H]3CCCC[C@@H]3C(=O)O)CC4)ccc21` [Example 18, (1S,2R)-2-((S)-8-((1-methyl-1H-benzo[d][1,2,3]triazol-5-yl)methoxy)-1-((1-oxoisoindolin-2-yl)methyl)-1,2,3,4-tetrahydroisoquinoline-2-carbonyl)cyclohexane-1-carboxylic acid] was run?
Its EC50 is 73 nM.

And the IC50 [2]?
The IC50 was 10 nM.

Which EC50 [1, 3] does the source give for `CC(=O)N1CC[C@H](Oc2ccc(Br)c3c2[C@@H](CN2Cc4ccccc4C2=O)N(C(=O)[C@@H]2CCCC[C@@H]2C(=O)O)CC3)C1` [Example 19, (1S,2R)-2-((S)-8-(((S)-1-acetylpyrrolidin-3-yl)oxy)-5-bromo-1-((1-oxoisoindolin-2-yl)methyl)-1,2,3,4-tetrahydroisoquinoline-2-carbonyl)cyclohexane-1-carboxylic acid] here?
Its EC50 is 130 nM.

And the IC50 [2]?
The IC50 was 9.7 nM.

Which results are given for `Cc1ncc(C(=O)N2CC[C@H](Oc3ccc(Br)c4c3[C@@H](CN3Cc5ccccc5C3=O)N(C(=O)[C@@H]3CCCC[C@@H]3C(=O)O)CC4)C2)s1` [Example 20, (1S,2R)-2-((S)-5-Bromo-8-(((S)-1-(2-methylthiazole-5-carbonyl)-pyrrolidin-3-yl)oxy)-1-((1-oxoisoindolin-2-yl)methyl)-1,2,3,4-tetrahydroisoquinoline-2-carbonyl)cyclohexane-1-carboxylic acid]?
EC50 [1, 3]: 20 nM; IC50 [2]: 5.4 nM

What does the source list for `Cc1cnc(N2CC[C@H](Oc3ccc(Br)c4c3[C@@H](CN3Cc5ccccc5C3=O)N(C(=O)[C@@H]3CCCC[C@@H]3C(=O)O)CC4)C2)s1` [Example 21, (1S,2R)-2-((S)-5-bromo-8-(((S)-1-(5-methylthiazol-2-yl)pyrrolidin-3-yl)oxy)-1-((1-oxoisoindolin-2-yl)methyl)-1,2,3,4-tetrahydroisoquinoline-2-carbonyl)cyclohexane-1-carboxylic acid]?
EC50 [1, 3]: 7.9 nM; IC50 [2]: 4.7 nM

With `Cc1cnnc(N2CC[C@H](Oc3ccc(Br)c4c3[C@@H](CN3Cc5ccccc5C3=O)N(C(=O)[C@@H]3CCCC[C@@H]3C(=O)O)CC4)C2)c1` [Example 22, (1S,2R)-2-((S)-5-bromo-8-(((S)-1-(5-methylpyridazin-3-yl)pyrrolidin-3-yl)oxy)-1-((1-oxoisoindolin-2-yl)methyl)-1,2,3,4-tetrahydroisoquinoline-2-carbonyl)cyclohexane-1-carboxylic acid] as the compound, how does the EC50 [1, 3] read?
Its EC50 is 15 nM.

What about the IC50 [2] of the same compound?
Its IC50 is 4.7 nM.

For `Cn1cnnc1COc1ccc(Br)c2c1[C@@H](CN1Cc3ccccc3C1=O)N(C(=O)[C@@H]1CCCC[C@@H]1C(=O)O)CC2` [Example 23, (1S,2R)-2-((S)-5-bromo-8-((4-methyl-4H-1,2,4-triazol-3-yl)methoxy)-1-((1-oxoisoindolin-2-yl)methyl)-1,2,3,4-tetrahydroisoquinoline-2-carbonyl)cyclohexane-1-carboxylic acid], which EC50 [1, 3] is on record?
The EC50 was 33 nM.

What about the IC50 [2] of the same compound?
Its IC50 is 10 nM.

Which results are given for `Cc1nc(COc2ccc(Br)c3c2[C@@H](CN2Cc4ccccc4C2=O)N(C(=O)[C@@H]2CCCC[C@@H]2C(=O)O)CC3)no1` [Example 24, (1S,2R)-2-((S)-5-Bromo-8-((5-methyl-1,2,4-oxadiazol-3-yl)methoxy)-1-((1-oxoisoindolin-2-yl)methyl)-1,2,3,4-tetrahydroisoquinoline-2-carbonyl)cyclohexane-1-carboxylic acid]?
EC50 [1, 3]: 41 nM; IC50 [2]: 9.1 nM

What does the source list for `Cn1cnc(COc2ccc(Br)c3c2[C@@H](CN2Cc4ccccc4C2=O)N(C(=O)[C@@H]2CCCC[C@@H]2C(=O)O)CC3)c1` [Example 25, (1S,2R)-2-((S)-5-Bromo-8-((1-methyl-1H-imidazol-4-yl)methoxy)-1-((1-oxoisoindolin-2-yl)methyl)-1,2,3,4-tetrahydroisoquinoline-2-carbonyl)cyclohexane-1-carboxylic acid 2,2,2-trifluoroacetic acid]?
EC50 [1, 3]: 150 nM; IC50 [2]: 15 nM

With `Cc1cc(COc2ccc(Br)c3c2[C@@H](CN2Cc4ccccc4C2=O)N(C(=O)[C@@H]2CCCC[C@@H]2C(=O)O)CC3)no1` [Example 26, (1S,2R)-2-((S)-5-Bromo-8-((5-methylisoxazol-3-yl)methoxy)-1-((1-oxoisoindolin-2-yl)methyl)-1,2,3,4-tetrahydroisoquinoline-2-carbonyl)cyclohexane-1-carboxylic acid] as the compound, how does the EC50 [1, 3] read?
The EC50 was 58 nM.

What about the IC50 [2] of the same compound?
Its IC50 is 14 nM.
